In patent US20240019437A1, “METHODS FOR THE DIAGNOSIS AND THE TREATMENT OF GRAFT-VERSUS-HOST DISEASE” (INSERM (INSTITUT NATIONAL DE LA SANTÉ ET DE LA RECHERCHE …, priority 2020, published 2024):

Biological target: T1, CD73 (Homo sapiens, UniProt P21589)
T1 construct: Eight different CD73-expressing DP8α TREG clones were all separately co-cultured; endogenous in cells; host or cells: CD73-expressing DP8α Treg clones (human T cell clones)
T1 sequence (P21589 27-549): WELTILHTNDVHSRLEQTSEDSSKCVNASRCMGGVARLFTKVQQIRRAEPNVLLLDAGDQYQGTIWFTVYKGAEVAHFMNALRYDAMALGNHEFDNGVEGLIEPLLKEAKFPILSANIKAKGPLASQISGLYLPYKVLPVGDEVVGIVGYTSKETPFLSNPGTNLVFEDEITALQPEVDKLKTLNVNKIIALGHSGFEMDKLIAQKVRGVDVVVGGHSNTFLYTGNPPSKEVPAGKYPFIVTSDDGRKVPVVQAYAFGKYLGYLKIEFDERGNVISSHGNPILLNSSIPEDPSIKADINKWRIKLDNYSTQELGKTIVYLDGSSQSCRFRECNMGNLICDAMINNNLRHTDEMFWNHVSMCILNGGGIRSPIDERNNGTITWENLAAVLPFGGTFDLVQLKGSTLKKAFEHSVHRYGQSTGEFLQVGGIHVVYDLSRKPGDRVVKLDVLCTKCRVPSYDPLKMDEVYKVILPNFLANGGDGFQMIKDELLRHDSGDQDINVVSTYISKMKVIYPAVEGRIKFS
Test: Co-culture of CD73-expressing DP8α TREG clones with VPD-stained CD4+ T cells, with or without CD73 inhibitors; proliferation as percentage of VPD LOW CD4+ T cells
Type: cell-based
Details: 1:1 co-culture, proliferation measured 6 days later; three concentrations per inhibitor; compared to no treatment

With Nc1ncnc2c1ncn2[C@@H]1O[C@H](COP(=O)([O-])CP(=O)(O)O)[C@@H](O)[C@H]1O.[Na+] [Adenosine 5′-(α,β-methylene)diphosphate sodium salt] the “Effect on suppressive function of CD73-expressing DP8α TREG clones (inhibition of CD4+ T cell proliferation)” value was “drastically impaired the suppressive function”.
